Laboratory results reported in BindingDB's records for doi:10.7270/Q2NS0SBF (Burnham Center For Chemical Genomics, 2010).

Biological target: Mu-type opioid receptor (Homo sapiens, UniProt P35372)
Assay: mu opioid receptor activators, image-based, SAR follow-up (AID 2352)

Chain of Mu-type opioid receptor (P35372 whole entry): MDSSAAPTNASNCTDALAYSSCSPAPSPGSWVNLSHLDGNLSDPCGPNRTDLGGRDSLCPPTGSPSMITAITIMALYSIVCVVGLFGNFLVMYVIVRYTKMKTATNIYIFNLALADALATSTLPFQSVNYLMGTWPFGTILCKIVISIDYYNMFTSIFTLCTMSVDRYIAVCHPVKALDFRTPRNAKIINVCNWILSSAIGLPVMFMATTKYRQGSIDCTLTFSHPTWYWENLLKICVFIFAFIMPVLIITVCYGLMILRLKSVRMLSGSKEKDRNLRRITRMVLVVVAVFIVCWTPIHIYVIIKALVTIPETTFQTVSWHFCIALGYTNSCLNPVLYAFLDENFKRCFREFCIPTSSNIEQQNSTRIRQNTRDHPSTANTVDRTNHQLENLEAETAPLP

EC50	Compound
> 32 µM	Oc1ccc(CN=Nc2ccnc3cc(Cl)ccc23)cc1O [(4Z)-4-[[2-(7-chloroquinolin-4-yl)hydrazinyl]methylidene]-2-hydroxycyclohexa-2,5-dien-1-one]
25.3 µM	CCC(N=Nc1ccnc2cc(Cl)ccc12)c1ccc(O)cc1 (configuration not stated) [4-[1-[2-(7-chloroquinolin-4-yl)hydrazinyl]propylidene]cyclohexa-2,5-dien-1-one]
